According to US20250230226A1, “PLXDC1/PLXDC2 ACTIVATORS AND THEIR USE IN THE TREATMENT OF BLOOD VESSEL DISORDERS” (THE REGENTS OF THE UNIVERSITY OF CALIFORNIA, priority 2019, published 2025):

How the values were obtained:
[1] = tested on: CT26.CL25 colon cancer tumor endothelial cells; experiment: Colon CT26 ex vivo model of tumor angiogenesis; assay type: cell-based, mouse; details: for 48 hrs (morphology observations after 48 hours): Conc. 40 μm; for cytotoxicity at 40 µM: Mus musculus, Endothelial cell, 48 h, read-out: Cell death
Procedure: An ex vivo tumor angiogenesis model was developed to test the efficacy of anti-cancer candidate agents. The following protocol describes the Ex Vivo Tumor Angiogenesis Model.
• 1. The day before the experiment, all necessary tools were sprayed with 70% ethanol and sterilized under UV light overnight, including blade, dissecting and micro-dissecting scissors and […]. 24-well dishes were placed at 4° C. to pre-chill plates and Matrigel was thawed, 24 hours before tumor dissection. • 2. 70% ethanol was sprayed on working bench. Two sterile petri dishes were prepared with 10 ml sterile PBS. The following steps 3 and 4 are necessary for mouse tumor models. For fresh human tumor, steps 3 and 4 are skipped. • 3. The tumor-bearing mice were euthanized. 70% ethanol was sprayed on the mouse and the tumor was removed using sterilized dissecting tools (avoid the fur). The tumor was rinsed in petri dish with sterile PBS to remove ethanol and fur. The tumor was transferred to a new petri dish with PBS for dissection. The dish is placed on ice. • 4. Pre-chilled sterile pipet tips were used to seed regular Matrigel in 24 well plates on ice. Matrigel (30 μl) was dropped in the middle of each well without touching the edge of the well (avoid introducing bubbles if possible). • 5. The tumor was cut in halves using the sterile blade. Healthy tumor tissue that is not necrotic and is within the tumor capsule was identified and isolated. The healthy tumor tissue was cut into small pieces. For instance, a suitable size for the tumor tissue is 0.5 mm (H)×0.5 mm (L)×0.3 mm (D) with a total volume of 0.075 mm^3. • 6. Each tumor piece was gently transferred and embedded in the Matrigel drop in the 24-well plate. The embedded piece was placed in the bottom and middle of each Matrigel drop. The plate was kept on ice all the time. • 7. After seeding the tumor pieces, plates were incubated in a 37° C. cell culture incubator without medium for 10 minutes in order for the Matrigel to solidify. • 8. Endothelial Growth Medium (0.5 ml) was added to each well and incubated at 37° C. with 5% CO2. Treatment was not added until the new endothelial cells was grown out of the tumor or were larger than 3 mm in diameter. This usually takes 4 days for the LL2 Lewis lung cancer model and 7 days for the CT26 colon cancer model. For human tumor models, the growth time is typically 2-3 weeks, depending on the tumor type. Media was changed every 4 days during prolonged culture. Typically, when the tumor tissue grows to 2 mm in diameter, it was good for drug testing. A size of about 3 mm in diameter can make visualization easier. • 9. When the assay was ready to be analyzed for cell death (e.g., 48 hours after drug addition), the dye mixture was prepared by mixing 6 μl of green dye to stain live cells (5 mg/ml Fluorescein diacetate or FDA in DMSO) with 30 μl of red dye (2.5 mg/ml Propidium iodide or PI in PBS) to stain dead cells in an Eppendorf tube. The FDA dye needs to be stored frozen in a −20° C. freezer because it has a labile ester bond. • 10. 1 μl of the dye mixture was added to each well of the 24-well dish. It is usually preferred to do one 24-well dish at a time given the amount of time needed to take pictures (the green dye is not as stable in the cells in the long term). • 11. The dish was gently rocked a few times to mix the dye with the media in the wells and incubate the dish at 37° C. for 10 min (too long incubation can make the green signal too intense). • 12. Each well was washed with 0.5 ml of sterile PBS and then 0.5 ml of phenol red free SFM was added to each well. Alternatively 0.5 ml of regular Endothelial Cell Growth Media can be added to each well if this well needs to be continuously maintained after the experiment. • 13. An inverted microscope using the 2× objective lens was used to observe morphological changes in the experimental wells. • 14. […]

[2] = tested on: LL/2 lung cancer tumor endothelial cells; experiment: Lung LL2 ex vivo model of tumor angiogenesis; assay type: cell-based, mouse; details: for 48 hrs (morphology observations): LL/2 tumor endothelial cells; for Cell death: drug treatment for two days, ratio of red area to total endothelial cell area
Outline: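 Live/dead imaging with FDA and PI, taken e.g. 48 h post-drug under fixed channel settings, measures treatment effects on endothelial cells sprouting from Lewis lung tumor explants. Explants were seeded in Matrigel drops and grown ~4 days in endothelial growth medium, 37 °C, 5% CO2, before dosing.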

[3] = Mus musculus, Endothelial cell, 48 h, read-out: Cell death

SMILES: CCc1ccc(C2(O)CCN(c3c(S(=O)(=O)c4ccc(OC)cc4)cnc4ccc(OC(F)(F)F)cc34)CC2)cc1 [Compound 129]
- 48 hrs (morphology observations after 48 hours) [1]: 0
- cytotoxicity at 40 µM [1]: 0%

SMILES: CCOC(=O)c1ccc2ncc(S(=O)(=O)c3ccc(CC)cc3)c(N3CCC(N4CCC(O)CC4)CC3)c2c1 [Compound 130]
- 48 hrs (morphology observations after 48 hours) [1]: 0
- cytotoxicity at 40 µM [1]: 40%

SMILES: CCOC(=O)c1ccc2ncc(S(=O)(=O)c3ccc(CC)cc3)c(N3CCC(OCCN(CC)CC)CC3)c2c1 [Compound 132]
- 48 hrs (morphology observations after 48 hours) [1]: * (50% or less of cells vesicularize in cell shape)
- cytotoxicity at 40 µM [1]: 40%

SMILES: CCOC(=O)c1ccc2ncc(S(=O)(=O)c3ccc(CC)cc3)c(N3CCC(O)(c4ccc(OC)cc4)CC3)c2c1 [Compound 148]
- 48 hrs (morphology observations after 48 hours) [1]: 0
- cytotoxicity at 40 µM [1]: 0%

SMILES: CCOC(=O)c1ccc2ncc(S(=O)(=O)c3ccc(OC)cc3)c(N3CCC(N4CCCCC4)CC3)c2c1 [Compound 136]
- 48 hrs (morphology observations after 48 hours) [1]: 0
- cytotoxicity at 40 µM [1]: 30%

SMILES: CCCCN(CCCC)c1c(S(=O)(=O)c2ccc(OC)c(OC)c2)cnc2ccc(SC)cc12 [Compound 124]
- 48 hrs (morphology observations after 48 hours) [1]: 0
- cytotoxicity at 40 µM [1]: 20%

SMILES: CCOC(=O)c1ccc2ncc(S(=O)(=O)c3ccc(CC)cc3)c(N3CCCC(O)C3)c2c1 (centres unmarked) [Compound 135]
- 48 hrs (morphology observations after 48 hours) [1]: 0
- cytotoxicity at 40 µM [1]: 30%

SMILES: CCOC(=O)c1ccc2ncc(S(=O)(=O)c3ccc(CC)cc3)c(N3CCCN(CCN(CC)CC)CC3)c2c1 [Compound 131]
- 48 hrs (morphology observations after 48 hours) [1]: ** (more than 50% but less than 100% of endothelial cells vesicularize in cell shape)
- cytotoxicity at 40 µM [1]: 50%

SMILES: CCOC(=O)c1ccc2ncc(S(=O)(=O)c3ccc(OC)cc3)c(N3CCCN(C)CC3)c2c1 [Compound 144]
- 48 hrs (morphology observations after 48 hours) [1]: 0
- cytotoxicity at 40 µM [1]: 30%

SMILES: CCOC(=O)c1ccc2ncc(S(=O)(=O)c3ccc(OC)cc3)c(N3CCCC(O)C3)c2c1 (centres unmarked) [Compound 137]
- 48 hrs (morphology observations after 48 hours) [1]: 0
- cytotoxicity at 40 µM [1]: 40%

SMILES: CCc1ccc(S(=O)(=O)c2cnc3ccc(OC(F)(F)F)cc3c2N2CCC(O)(c3ccc(OC)cc3)CC2)cc1 [Compound 145]
- 48 hrs (morphology observations after 48 hours) [1]: 0
- cytotoxicity at 40 µM [1]: 30%

SMILES: COc1ccc(S(=O)(=O)c2cnc3ccc(SC)cc3c2N2CCC(N3CCC(O)CC3)CC2)cc1OC [Compound 153]
- 48 hrs (morphology observations after 48 hours) [1]: * (50% or less of cells vesicularize in cell shape)
- cytotoxicity at 40 µM [1]: 20%

SMILES: CCOC(=O)c1ccc2ncc(S(=O)(=O)c3ccc(OC)cc3)c(N3CCC(OCCN(CC)CC)CC3)c2c1 [Compound 140]
- 48 hrs (morphology observations after 48 hours) [1]: ** (more than 50% but less than 100% of endothelial cells vesicularize in cell shape)
- cytotoxicity at 40 µM [1]: 60%

SMILES: CCOC(=O)c1ccc2ncc(S(=O)(=O)c3ccc(CC)cc3)c(N3CCC(O)(c4ccc(CC)cc4)CC3)c2c1 [Compound 128]
- 48 hrs (morphology observations after 48 hours) [1]: 0
- cytotoxicity at 40 µM [1]: 10%

SMILES: COc1ccc(S(=O)(=O)c2cnc3ccc(OC(F)(F)F)cc3c2N2CCC(O)(c3cccc(OC)c3)CC2)cc1 [Compound 146]
- 48 hrs (morphology observations after 48 hours) [1]: 0
- cytotoxicity at 40 µM [1]: 0%

SMILES: CCOC(=O)c1ccc2ncc(S(=O)(=O)c3ccc(OC)cc3)c(-n3nnc4ccccc43)c2c1 [Compound 142]
- 48 hrs (morphology observations) ([2]; 20 μm): **** (100% of endothelial cells vesicularize in cell shape and look flattened in morphology (indicating disintegration of the cell body))

SMILES: COc1ccc(S(=O)(=O)c2cnc3ccc(S(C)(=O)=O)cc3c2NN2CCN(C)CC2)cc1 [Compound 228]
- 48 hrs (morphology observations) ([2]; 40 μm): 0
- Cell death ([2]; 40 μm): 5%

SMILES: COc1ccc(S(=O)(=O)c2cnc3cc(OC)c(OC)cc3c2N2CCCN(c3nc4ccc(Cl)cc4s3)CC2)cc1 [Compound 327]
- 48 hrs (morphology observations) ([2]; 40 μm): 0
- cytotoxicity at 40 µM [2, 3]: 20%

SMILES: COc1ccc(S(=O)(=O)c2cnc3ccc(CC#N)cc3c2N2CCC(N3CCCCC3)CC2)cc1 [Compound 115]
- 48 hrs (morphology observations) ([2]; 20 μm): 0
- cytotoxicity at 20 µM [2, 3]: 10%

SMILES: CCCCCCCOc1ccc(S(=O)(=O)c2cnc3ccc(SC)cc3c2N2CCC(N3CCC(O)CC3)CC2)cc1 [Compound 223]
- 48 hrs (morphology observations) ([2]; 40 μm): *** (more than 50% but less than 100% of endothelial cells vesicularize in cell shape)
- cytotoxicity at 40 µM [2, 3]: 30%

SMILES: COc1ccc(S(=O)(=O)c2cnc3ccc([S+](C)[O-])cc3c2NN2CCN(C)CC2)cc1 (centres unmarked) [Compound 227]
- 48 hrs (morphology observations) ([2]; 40 μm): 0
- Cell death ([2]; 40 μm): 10%

SMILES: CCCCCCCCCCCCOc1ccc(S(=O)(=O)c2cnc3ccc([S+](C)[O-])cc3c2N2CCC(N3CCC(N4CCCCC4)CC3)CC2)cc1F (centres unmarked) [Compound 363]
- 48 hrs (morphology observations) ([2]; 20 μm): *** (more than 50% but less than 100% of endothelial cells vesicularize in cell shape)
- Cell death ([2]; 20 μm): 30%

SMILES: CCc1ccc(S(=O)(=O)c2cnc3ccc(OC(F)(F)F)cc3c2N2CCC(N(CC)CC)CC2)cc1 [Compound 103]
- 48 hrs (morphology observations) ([2]; 20 μm): 0
- Cell death ([2]; 20 μm): 10%

SMILES: CCCCOc1ccc(S(=O)(=O)c2cnc3ccc([S+](C)[O-])cc3c2N2CCC(N3CCCCC3)CC2)cc1 (centres unmarked) [Compound 167]
- 48 hrs (morphology observations) ([2]; 20 μm): 0
- Cell death ([2]; 20 μm): 40%

SMILES: CCCCOc1ccc(S(=O)(=O)c2cnc3ccc(SC)cc3c2N2CCCN(C3COC3)CC2)cc1 [Compound 355]
- 48 hrs (morphology observations) ([2]; 40 μm): 0
- cytotoxicity at 40 µM [2, 3]: 0%

SMILES: COc1ccc(S(=O)(=O)c2cnc3cc(OC)c(OC)cc3c2N2CCC(=O)N(C)CC2)cc1 [Compound 328]
- 48 hrs (morphology observations) ([2]; 40 μm): 0
- Cell death ([2]; 40 μm): 30%

SMILES: CCCCCCCOc1ccc(S(=O)(=O)c2cnc3ccc([S+](C)[O-])cc3c2N2CCN(CCN3CCCCC3)CC2)cc1 (centres unmarked) [Compound 282]
- 48 hrs (morphology observations) ([2]; 10 μm): 0
- Cell death ([2]; 10 μm): 10%

SMILES: CCCCOc1ccc(S(=O)(=O)c2cnc3ccc(SC)cc3c2N2CCCN(CC3(O)CCCC3)CC2)cc1 [Compound 354]
- 48 hrs (morphology observations) ([2]; 40 μm): 0
- cytotoxicity at 40 µM [2, 3]: 0%

SMILES: CCCCCCCOc1ccc(S(=O)(=O)c2cnc3ccc([S+](C)[O-])cc3c2N2CCC(N3CCC(O)(c4ccccc4)CC3)CC2)cc1 (centres unmarked) [Compound 263]
- 48 hrs (morphology observations) ([2]; 10 μm): **** (100% of endothelial cells vesicularize in cell shape and look flattened in morphology (indicating disintegration of the cell body))

SMILES: COc1ccc(S(=O)(=O)c2cnc3ccc(C(=O)N(C)C)cc3c2N2CCC(N3CCCC3=O)CC2)cc1 [Compound 332]
- 48 hrs (morphology observations) ([2]; 40 μm): 0
- Cell death ([2]; 40 μm): 0%

SMILES: CCCCCCCOc1ccc(S(=O)(=O)c2cnc3ccc([S+](C)[O-])cc3c2N2CCN(C3CCN(CC)CC3)CC2)cc1 (centres unmarked) [Compound 277]
- cytotoxicity at 10 µM [2, 3]: 60%

SMILES: COc1ccc(S(=O)(=O)c2cnc3ccc(OC(F)(F)F)cc3c2N2CCC(N3CCC(O)CC3)CC2)cc1 [Compound 113]
- 48 hrs (morphology observations) ([2]; 20 μm): 0
- cytotoxicity at 20 µM [2, 3]: 10%

SMILES: CCCCCCCCCCOc1ccc(S(=O)(=O)c2cnc3ccc([S+](C)[O-])cc3c2N2CCC(N3CCC(N4CCOCC4)CC3)CC2)cc1 (centres unmarked) [Compound 286]
- Cell death, read at 24 hrs ([2]; 20 μm): 0%
- Endothelial cell morphology score at 24 hrs ([2]; 20 μm): 0

SMILES: CCCCCCCCCCOc1ccc(S(=O)(=O)c2cnc3ccc([S+](C)[O-])cc3c2N2CCC(N3CCC(N4CCN(CCO)CC4)CC3)CC2)cc1 (centres unmarked) [Compound 292]
- Cell death, read at 24 hrs ([2]; 20 μm): 10%
- Endothelial cell morphology score at 24 hrs ([2]; 20 μm): * (50% or less of cells vesicularize in cell shape)
